Laboratory results taken from patent US6380245B1, “Antibiotics TKR1912-I and TKR1912-II and process for producing the same” (Takara Shuzo Co., Ltd., priority 1995, dated 2002).
In brackets after ≈: the same amount, converted by molar mass. Where two headings read alike, the source gives them in different places.

Experiments:
[1] = test system: Aspergillus fumigatus TIMM1776; test: Antifungal spectrum, liquid medium dilution method; type: cell-based
Experimental: (§1) The antifungal spectra of the above TKR1912-I and TKR1912-II against various microorganisms were determined. Using the liquid medium dilution method, the concentration causing a substantially complete inhibition of fungal growth was determined as minimal inhibitory concentration (μg/ml). Moreover, the minimal concentration (μg/ml) causing partial growth inhibition was determined and the results are presented in parentheses in Table 2. In the table, YNBG stands for YNBG medium comprising 0.67% of yeast nitrogen base (Difco) and 1.0% of glucose and BHI stands for BHI medium comprising brain-heart infusion bouillon (Nissui Pharmaceutical).

[2] = test system: Candida albicans TIMM0136; test: Antifungal spectrum, liquid medium dilution method; type: cell-based
Experimental: as §1

[3] = test system: Candida kefyr TIMM0301; test: Antifungal spectrum, liquid medium dilution method; type: cell-based; details: for MIC: Kluyveromyces marxianus
Experimental: as §1

[4] = test system: Cryptococcus neoformans TIMM0354; test: Antifungal spectrum, liquid medium dilution method; type: cell-based
Experimental: as §1

[5] = test system: ICR mice; test: Toxicity after intraperitoneal administration to ICR mice; type: in vivo; details: 50 mg/kg
[6] = Solubility in solvents; type: physicochemical
[7] = Aspergillus fumigatus TIMM1776, BHI medium
[8] = Candida albicans TIMM0136, YNBG medium
[9] = Candida kefyr TIMM0301, YNBG medium

SMILES | minimal concentration causing partial growth inhibition (in parentheses) [1, 7] | MIC ([1]; Aspergillus fumigatus, TIMM1776, read-out: Minimal inhibitory concentration (substantially complete inhibition of fungal growth)) | minimal concentration causing partial growth inhibition (in parentheses) [2, 8] | MIC ([2]; Candida albicans, TIMM0136, read-out: Minimal inhibitory concentration (substantially complete inhibition of fungal growth)) | minimal concentration causing partial growth inhibition (in parentheses) [3, 9] | MIC ([3]; TIMM0301, read-out: Minimal inhibitory concentration (substantially complete inhibition of fungal growth)) | minimal concentration causing partial growth inhibition (in parentheses) ([4]; Cryptococcus neoformans TIMM0354, YNBG medium) | MIC ([4]; Cryptococcus neoformans, TIMM0354, read-out: Minimal inhibitory concentration (substantially complete inhibition of fungal growth)) | toxic signs [5] | solubility in hexane [6] | solubility in methanol, chloroform, and water [6] | MIC ([1]; Aspergillus fumigatus TIMM1776, BHI medium, read-out: Minimal inhibitory concentration (substantially complete inhibition of fungal growth)) | MIC ([2]; Candida albicans TIMM0136, YNBG medium, read-out: Minimal inhibitory concentration (substantially complete inhibition of fungal growth)) | MIC ([3]; Candida kefyr TIMM0301, YNBG medium, read-out: Minimal inhibitory concentration (substantially complete inhibition of fungal growth)) | MIC ([4]; Cryptococcus neoformans TIMM0354, YNBG medium, read-out: Minimal inhibitory concentration (substantially complete inhibition of fungal growth))
CCCCCCCC/C=C/CC/C=C/C1CC(C(=O)O)C(CC(=O)O)(C(=O)OC(C(=O)O)C(CC(=O)O)C(=O)O)O1 (stereo not drawn) [TKR1912-II] | (25) μg/ml | > 100 µg/mL | (0.78) μg/ml | 3.13 µg/mL (≈ 5.35 µM) | (1.56) μg/ml | 3.13 µg/mL (≈ 5.35 µM) | (6.25) μg/ml | > 100 µg/mL | no toxic signs | practically insoluble | soluble | – | – | – | –
CCCCCCCCCC/C=C/C1CC(C(=O)O)C(CC(=O)O)(C(=O)OC(C(=O)O)C(CC(=O)O)C(=O)O)O1 (stereo not drawn) [TKR1912-I] | (100) μg/ml | – | (1.56) μg/ml | – | (6.25) μg/ml | – | – | – | no toxic signs | practically insoluble | soluble | > 100 µg/mL | 3.13 µg/mL (≈ 5.6 µM) | 12.5 µg/mL (≈ 22.4 µM) | 6.25 µg/mL (≈ 11.2 µM)
